Laboratory results from the supplement of paper PMC10307832.

Assays:
Assay in all cases: relative viability (nuclei count vs DMSO), 5 days (fraction); higher = more cells survive
NCI-H727 = test system: NCI-H727
Method in brief: (§1)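 Lung cancer cell lines were seeded in 1536-well plates and dosed by pin tool the next day, with either a single drug or a fixed anchor-drug dose combined with five library-drug doses (not always all listed) spaced in √10 steps. Five days later, one step fixed the cells and stained their nuclei (final 0.05% Triton X-100, 1% formaldehyde, 1 ug/ml Hoechst), and nuclei were counted on 4× images. Relative viability is the nuclei count in treated wells divided by the count in vehicle wells, and each value is the median of duplicate plates.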

BEN = test system: BEN
Method in brief: as §1

RERF-LC-KJ = test system: RERF-LC-KJ
Method in brief: as §1

NCI-H1993 = test system: NCI-H1993
Method in brief: as §1

NCI-H358 = test system: NCI-H358
Method in brief: as §1

NCI-H650 = test system: NCI-H650
Method in brief: as §1

NCI-H1915 = test system: NCI-H1915
Method in brief: as §1

NCI-H1623 = test system: NCI-H1623
Method in brief: as §1

NCI-H1563 = test system: NCI-H1563
Method in brief: as §1

LXF-289 = test system: LXF-289
Method in brief: as §1

SW 900 = test system: SW 900
Method in brief: as §1

NCI-H1666 = test system: NCI-H1666
Method in brief: as §1

EMC-BAC-2 = test system: EMC-BAC-2
Method in brief: as §1

PC-14 = test system: PC-14
Method in brief: as §1

NCI-H2087 = test system: NCI-H2087
Method in brief: as §1

NCI-H2085 = test system: NCI-H2085
Method in brief: as §1

NCI-H2347 = test system: NCI-H2347
Method in brief: as §1

HCC-78 = test system: HCC-78
Method in brief: as §1

NCI-H2170 = test system: NCI-H2170
Method in brief: as §1

HCC-366 = test system: HCC-366
Method in brief: as §1

NCI-H1944 = test system: NCI-H1944
Method in brief: as §1

LC-2-ad = test system: LC-2-ad
Method in brief: as §1

EBC-1 = test system: EBC-1
Method in brief: as §1

NCI-H1650 = test system: NCI-H1650
Method in brief: as §1

NCI-H2228 = test system: NCI-H2228
Method in brief: as §1

Work on `Nc1cccc2c1CN(C1CCC(=O)NC1=O)C2=O` (stereo not given) [Lenalidomide] + COc1cc2c(Oc3ccc(NC(=O)C4(C(=O)Nc5ccc(F)cc5)CC4)cc3F)ccnc2cc1OCCCN1CCOCC1 [Foretinib] (partner 0.25 µM) yielded a relative viability (NCI-H727; first compound 0.253 µM) of 0.904, a relative viability (NCI-H727; first compound 0.8 µM) of 0.929 and a relative viability (NCI-H727; first compound 2.53 µM) of 1. The relative viability (NCI-H727; first compound 8 µM) was 1.05, the relative viability (BEN; first compound 0.253 µM) was 0.822 and the relative viability (BEN; first compound 0.8 µM) was 0.583. The relative viability (BEN; first compound 2.53 µM) was 0.812, the relative viability (BEN; first compound 8 µM) was 0.409 and the relative viability (RERF-LC-KJ; first compound 0.253 µM) was 0.891. For the same molecule, the relative viability (RERF-LC-KJ; first compound 0.8 µM) was 0.886, the relative viability (RERF-LC-KJ; first compound 2.53 µM) was 0.962 and the relative viability (RERF-LC-KJ; first compound 8 µM) was 0.793. It also gave a relative viability (NCI-H1993; first compound 0.253 µM) of 0.739, a relative viability (NCI-H1993; first compound 0.8 µM) of 0.658 and a relative viability (NCI-H1993; first compound 2.53 µM) of 0.775. For the same molecule, the relative viability (NCI-H1993; first compound 8 µM) was 0.707, the relative viability (NCI-H358; first compound 0.253 µM) was 0.47 and the relative viability (NCI-H358; first compound 0.8 µM) was 0.987. It also gave a relative viability (NCI-H358; first compound 2.53 µM) of 0.791, a relative viability (NCI-H358; first compound 8 µM) of 0.797 and a relative viability (NCI-H650; first compound 0.253 µM) of 1.02. For the same molecule, the relative viability (NCI-H650; first compound 2.53 µM) was 1.14, the relative viability (NCI-H650; first compound 8 µM) was 1.01 and the relative viability (NCI-H1915; first compound 0.253 µM) was 1.07. It also gave a relative viability (NCI-H1915; first compound 0.8 µM) of 1.03, a relative viability (NCI-H1915; first compound 2.53 µM) of 1.14 and a relative viability (NCI-H1915; first compound 8 µM) of 1.14. For the same molecule, the relative viability (NCI-H1623; first compound 0.253 µM) was 0.858, the relative viability (NCI-H1623; first compound 0.8 µM) was 0.784 and the relative viability (NCI-H1623; first compound 2.53 µM) was 0.862. For the same molecule, the relative viability (NCI-H1623; first compound 8 µM) was 0.71, the relative viability (NCI-H1563; first compound 0.253 µM) was 0.894 and the relative viability (NCI-H1563; first compound 0.8 µM) was 0.933. For the same molecule, the relative viability (NCI-H1563; first compound 2.53 µM) was 0.902, the relative viability (NCI-H1563; first compound 8 µM) was 0.77 and the relative viability (LXF-289; first compound 0.253 µM) was 0.977. For the same molecule, the relative viability (LXF-289; first compound 0.8 µM) was 1.01, the relative viability (LXF-289; first compound 2.53 µM) was 1.07 and the relative viability (LXF-289; first compound 8 µM) was 1.09. It also gave a relative viability (SW 900; first compound 0.253 µM) of 0.785, a relative viability (SW 900; first compound 2.53 µM) of 0.879 and a relative viability (SW 900; first compound 8 µM) of 0.884. The relative viability (NCI-H1666; first compound 0.253 µM) was 1, the relative viability (NCI-H1666; first compound 2.53 µM) was 1 and the relative viability (NCI-H1666; first compound 8 µM) was 0.983. For the same molecule, the relative viability (EMC-BAC-2; first compound 0.253 µM) was 1, the relative viability (EMC-BAC-2; first compound 0.8 µM) was 0.967 and the relative viability (EMC-BAC-2; first compound 2.53 µM) was 1.04. It also gave a relative viability (EMC-BAC-2; first compound 8 µM) of 0.885, a relative viability (PC-14; first compound 0.253 µM) of 0.945 and a relative viability (PC-14; first compound 0.8 µM) of 1.02. The relative viability (PC-14; first compound 2.53 µM) was 1.01, the relative viability (PC-14; first compound 8 µM) was 0.982 and the relative viability (NCI-H2087; first compound 0.253 µM) was 0.801. For the same molecule, the relative viability (NCI-H2087; first compound 0.8 µM) was 1.17, the relative viability (NCI-H2087; first compound 2.53 µM) was 1.17 and the relative viability (NCI-H2087; first compound 8 µM) was 1.28. For the same molecule, the relative viability (NCI-H2085; first compound 0.253 µM) was 1.04, the relative viability (NCI-H2085; first compound 0.8 µM) was 1.11 and the relative viability (NCI-H2085; first compound 2.53 µM) was 0.929. It also gave a relative viability (NCI-H2085; first compound 8 µM) of 1.07, a relative viability (NCI-H2347; first compound 0.253 µM) of 0.881 and a relative viability (NCI-H2347; first compound 0.8 µM) of 1.05. For the same molecule, the relative viability (NCI-H2347; first compound 2.53 µM) was 0.956, the relative viability (NCI-H2347; first compound 8 µM) was 0.364 and the relative viability (HCC-78; first compound 0.253 µM) was 0.673. It also gave a relative viability (HCC-78; first compound 0.8 µM) of 0.526, a relative viability (HCC-78; first compound 2.53 µM) of 0.516 and a relative viability (HCC-78; first compound 8 µM) of 0.514. The relative viability (NCI-H2170; first compound 0.253 µM) was 0.972, the relative viability (NCI-H2170; first compound 0.8 µM) was 1 and the relative viability (NCI-H2170; first compound 2.53 µM) was 1.04. It also gave a relative viability (NCI-H2170; first compound 8 µM) of 1.02, a relative viability (HCC-366; first compound 0.253 µM) of 0.916 and a relative viability (HCC-366; first compound 0.8 µM) of 1.04. For the same molecule, the relative viability (HCC-366; first compound 2.53 µM) was 0.915, the relative viability (HCC-366; first compound 8 µM) was 0.929 and the relative viability (NCI-H1944; first compound 0.253 µM) was 0.871. It also gave a relative viability (NCI-H1944; first compound 0.8 µM) of 0.905, a relative viability (NCI-H1944; first compound 2.53 µM) of 0.911 and a relative viability (NCI-H1944; first compound 8 µM) of 0.848. For the same molecule, the relative viability (LC-2-ad; first compound 0.253 µM) was 0.92, the relative viability (LC-2-ad; first compound 2.53 µM) was 1.05 and the relative viability (LC-2-ad; first compound 8 µM) was 0.96. It also gave a relative viability (EBC-1; first compound 0.253 µM) of 0.0951, a relative viability (EBC-1; first compound 0.8 µM) of 0.0871 and a relative viability (EBC-1; first compound 2.53 µM) of 0.0994. It also gave a relative viability (EBC-1; first compound 8 µM) of 0.109, a relative viability (NCI-H1650; first compound 0.8 µM) of 1.46 and a relative viability (NCI-H1650; first compound 2.53 µM) of 1.18. It also gave a relative viability (NCI-H1650; first compound 8 µM) of 1.37, a relative viability (NCI-H2228; first compound 0.253 µM) of 0.943 and a relative viability (NCI-H2228; first compound 0.8 µM) of 0.907. It also gave a relative viability (NCI-H2228; first compound 2.53 µM) of 1.04 and a relative viability (NCI-H2228; first compound 8 µM) of 0.975.
